Results on 15 compounds are retold here after US4735959A, “Carboxylic acid amides and pharmaceutical compositions containing them” (Dr. Karl Thomae GmbH, priority 1981, dated 1988).

Read-outs that look alike come from different tables or passages of the source.

For the assay, the system named is blood-sugar. Kind of assay: Blood-sugar lowering activity in starved female rats after oral administration. In kind it is in vivo. The conditions noted are these: for change in vivo at 1 mg/kg / change in vivo at 5 mg/kg / change in vivo at 10 mg/kg / change in vivo at 0.6 mg/kg: Rattus norvegicus, po, read-out: Blood-sugar lowering activity, percent as compared with the controls; for change in vivo at 0.6 mg/kg: 0.6 mg/kg orally. As to the method: The blood-sugar lowering activity of the test compounds was determined in home-bred female rats with weights of from 180 to 220 grams. Twenty-four hours before starting the test the animals were starved. Before the test the compounds were suspended in 1.5% methyl cellulose and administered to the animals by means of an esophageal tube.
Blood was taken from the retroorbital plexus vein before administration of the test compounds as well as each of 1, 2, 3, and 4 hours after administration. Fifty microliters of each sample were deproteinized with 0.5 ml of 0.33N perchloric acid and centrifuged. The glucose content was determined in the supernatant according to the Hexokinase method by means of an analysis photometer. The statistical evalulation was performed with the t-test according to Student with p=0.05.

The mark [1] stands for this setting: 1 mg/kg orally, 3 hours, n.s. = not statistically significant.
Where [2] appears, read: 1 mg/kg orally, 4 hours, n.s. = not statistically significant.
Setting [3] is: 1 mg/kg orally, 1 hour, n.s. = not statistically significant.
The mark [4] stands for this setting: 1 mg/kg orally, 2 hours, n.s. = not statistically significant.
Where [5] appears, read: 5 mg/kg orally, 1 hour, n.s. = not statistically significant.
Where [6] appears, read: 5 mg/kg orally, 2 hours, n.s. = not statistically significant.
[7] abbreviates: 5 mg/kg orally, 3 hours, n.s. = not statistically significant.
[8] abbreviates: 5 mg/kg orally, 4 hours, n.s. = not statistically significant.
The mark [9] stands for this setting: 10 mg/kg orally (footnote *), 3 hours, n.s. = not statistically significant.
The mark [10] stands for this setting: 10 mg/kg orally (footnote *), 4 hours, n.s. = not statistically significant.
[11] abbreviates: 10 mg/kg orally (footnote *), 1 hour.
The mark [12] stands for this setting: 10 mg/kg orally (footnote *), 2 hours.

Consider `O=C(Cc1ccc(C(=O)O)cc1)NC(c1ccccc1)c1cccc(Cl)c1N1CCCCC1` (stereo not drawn) [AS, 4-[(3-Chloro-α-phenyl-2-piperidino-benzyl)-aminocarbonylmethyl]-benzoic acid], for which the “Blood-sugar lowering activity, percent as compared with the controls” value (from here on “Blood-sugar lowering activity, percent”) is, setting by setting: under setting [1], “n.s”; under setting [2], “n.s”. Moreover, the change in vivo at 1 mg/kg under setting [3] is -21% and the change in vivo at 1 mg/kg under setting [4] is -13%. Moreover, the change in vivo at 5 mg/kg is -45% under setting [5], -44% under setting [6], -42% under setting [7] and -32% under setting [8].

Turning to `O=C(Cc1ccc(C(=O)O)cc1)NC(c1ccccc1)c1c(Cl)cccc1N1CCCCC1` (stereo not drawn) [AJ, 4-[(6-Chloro-α-phenyl-2-piperidino-benzyl)-aminocarbonylmethyl]-benzoic acid], the change in vivo at 1 mg/kg reads like this: under setting [3], -35%; under setting [4], -34%; under setting [1], -28%; under setting [2], -20%. Also, the change in vivo at 5 mg/kg under setting [5] is -44%, the change in vivo at 5 mg/kg under setting [6] is -40%, the change in vivo at 5 mg/kg under setting [7] is -39% and the change in vivo at 5 mg/kg under setting [8] is -40%.

Take `O=C(Cc1ccc(C(=O)O)cc1)NC(c1ccncc1)c1ccccc1N1CCCCC1` (stereo not drawn) [AH, 4-[(2-Piperidino-α-(4-pyridyl)-benzyl)-aminocarbonylmethyl]-benzoic acid]: the “Blood-sugar lowering activity, percent” value under setting [1] is given as “n.s”; the “Blood-sugar lowering activity, percent” value under setting [2] is “n.s”; the “Blood-sugar lowering activity, percent” value under setting [8] is “n.s”. In addition, the change in vivo at 1 mg/kg under setting [3] is -26% and the change in vivo at 1 mg/kg under setting [4] was -14%. For the same compound, the change in vivo at 5 mg/kg by setting is: under setting [5], -41%; under setting [6], -37%; under setting [7], -20%.

In the case of `O=Cc1ccc(CC(=O)NC(c2ccccc2)c2ccccc2N2CCCCC2)cc1` (stereo not drawn) [AP, 4-[(α-Phenyl-2-piperidino-benzyl)-aminocarbonylmethyl]-benzaldehyde], the change in vivo at 1 mg/kg is, setting by setting: under setting [3], -26%; under setting [4], -28%; under setting [1], -22%; under setting [2], -17%.

In the case of `CC1CCCN(c2ccccc2C(NC(=O)Cc2ccc(C(=O)O)cc2)c2ccccc2)C1` (stereo not drawn) [AR, 4-[(2-(3-Methyl-piperidino)-α-phenyl-benzyl)-aminocarbonylmethyl]-benzoic acid], the “Blood-sugar lowering activity, percent” value under setting [1] is “n.s” and the “Blood-sugar lowering activity, percent” value under setting [2] is recorded as “n.s”. Moreover, the change in vivo at 1 mg/kg under setting [3] is -13% and the change in vivo at 1 mg/kg under setting [4] was -9%. Also, the change in vivo at 5 mg/kg was -35% under setting [5], -30% under setting [6], -29% under setting [7] and -31% under setting [8].

With `CCCC(NC(=O)Cc1ccc(C(=O)OCC)cc1)c1ccccc1N1CCCCC1` (single isomer, unassigned; (+)) [L, (+)-4-[(1-(2-Piperidino-phenyl)-1-butyl)-aminocarbonylmethyl]-benzoic acid ethyl ester], the “Blood-sugar lowering activity, percent” value under setting [2] was “n.s”. The change in vivo at 1 mg/kg was -14% under setting [3], -18% under setting [4] and -14% under setting [1]. Besides, the change in vivo at 5 mg/kg under setting [5] is -42%, the change in vivo at 5 mg/kg under setting [6] was -45%, the change in vivo at 5 mg/kg under setting [7] was -31% and the change in vivo at 5 mg/kg under setting [8] is -22%.

Take `CCCCCC(NC(=O)Cc1ccc(C(=O)O)cc1)c1ccccc1N1CCCCC1` (stereo not drawn) [N, 4-[(1-(2-Piperidino-phenyl)-1-hexyl)-aminocarbonylmethyl]-benzoic acid]: the change in vivo at 5 mg/kg reads like this: under setting [5], -42%; under setting [6], -42%; under setting [7], -37%; under setting [8], -33%.

For the compound `CCCC/C=C(\NC(=O)Cc1ccc(C(=O)OCC)cc1)c1ccccc1N1CCCCC1` [E, (Z)-4-[(1-(2-Piperidino-phenyl)-1-hexen-1-yl)-aminocarbonylmethyl]-benzoic acid ethyl ester], the change in vivo at 1 mg/kg was -23% under setting [3], -23% under setting [4], -12% under setting [1] and -18% under setting [2]. The change in vivo at 5 mg/kg reads like this: under setting [5], -46%; under setting [6], -40%; under setting [7], -38%; under setting [8], -26%.

In the case of `O=C(Cc1ccc(C(=O)O)cc1)NC(c1cccc(Cl)c1)c1ccccc1N1CCCCC1` (stereo not drawn) [AF, 4-[(α-(3-Chloro-phenyl)-2-piperidino-benzyl)-aminocarbonylmethyl]-benzoic acid], the “Blood-sugar lowering activity, percent” value under setting [1] is reported as “n.s” and the “Blood-sugar lowering activity, percent” value under setting [2] is given as “n.s”. Further, the change in vivo at 1 mg/kg was -17% under setting [3] and -19% under setting [4]. The change in vivo at 5 mg/kg under setting [5] is -43%, the change in vivo at 5 mg/kg under setting [6] is -39%, the change in vivo at 5 mg/kg under setting [7] was -30% and the change in vivo at 5 mg/kg under setting [8] is -26%.

For the compound `CCCC(NC(=O)Cc1ccc(CO)cc1)c1ccccc1N1CCCCC1` (stereo not drawn) [R, 4-[(1-(2-Piperidino-phenyl)-1-butyl)-aminocarbonylmethyl]-benzyl alcohol], the change in vivo at 1 mg/kg runs as follows: under setting [3], -39%; under setting [4], -34%; under setting [1], -29%; under setting [2], -24%. Besides, the change in vivo at 5 mg/kg by setting is: under setting [5], -38%; under setting [6], -40%; under setting [7], -35%; under setting [8], -29%.

With `Cc1cccc(N2CCCCC2)c1C(NC(=O)Cc1ccc(C(=O)O)cc1)c1ccccc1` (stereo not drawn) [AN, 4-[(6-Methyl-α-phenyl-2-piperidino-benzyl)-aminocarbonylmethyl]-benzoic acid], the “Blood-sugar lowering activity, percent” value is, setting by setting: under setting [1], “n.s”; under setting [2], “n.s”. Also, the change in vivo at 1 mg/kg was -27% under setting [3] and -24% under setting [4]. Moreover, the change in vivo at 5 mg/kg is, setting by setting: under setting [5], -39%; under setting [6], -35%; under setting [7], -27%; under setting [8], -26%.

Take `Cc1ccc(C(NC(=O)Cc2ccc(C(=O)O)cc2)c2ccccc2)c(N2CCCCC2)c1` (stereo not drawn) [AO, 4-[(4-Methyl-α-phenyl-2-piperidino-benzyl)-aminocarbonylmethyl]-benzoic acid]: the change in vivo at 1 mg/kg was -17% under setting [4], -15% under setting [1] and -11% under setting [2]. Moreover, the change in vivo at 5 mg/kg is -37% under setting [5], -34% under setting [6], -32% under setting [7] and -31% under setting [8].

Turning to `O=C(Cc1ccc(C(=O)O)cc1)NC(CCc1ccccc1)c1ccccc1N1CCCCC1` (stereo not drawn) [O, 4-[(3-Phenyl-1-(2-piperidino-phenyl)-1-propyl)-aminocarbonylmethyl]-benzoic acid], the “Blood-sugar lowering activity, percent” value reads like this: under setting [9], “n.s”; under setting [10], “n.s”. Also, the change in vivo at 10 mg/kg is -38% under setting [11] and -31% under setting [12].

Consider `O=C(Cc1ccc(C(=O)O)cc1)NC(c1ccccc1)c1ccccc1N1CCCCC1` (single isomer, unassigned; (-)) [AW, (-)-4-[(2-Piperidino-benzhydryl)-aminocarbonylmethyl]-benzoic acid], for which the change in vivo at 0.6 mg/kg runs as follows: (1 hour) -40%; (2 hours) -34%; (3 hours) -31%; (4 hours) -26%.

Regarding `C=C(NC(=O)Cc1ccc(C(=O)O)cc1)c1ccccc1N1CCCCCCCC1` [X, 4-[(1-(2-Octahydroazonino-phenyl)-1-ethenyl)-aminocarbonylmethyl]-benzoicacid], the change in vivo at 10 mg/kg under setting [11] was -34%, the change in vivo at 10 mg/kg under setting [12] is -21%, the change in vivo at 10 mg/kg under setting [9] was -17% and the change in vivo at 10 mg/kg under setting [10] is -14%.
